Results taken from ChEMBL document CHEMBL1136194, “Discovery and evaluation of 3-(5-thien-3-ylpyridin-3-yl)-1H-indoles as a novel class of KDR kinase inhibitors” (Bioorg Med Chem Lett, 2003).
In brackets after ≈: the same amount, converted by molar mass.

Legend:
[1] = Oral bioavailability in rat (dose 20 mg/kg p.o.); type: ADME, organism-based; conditions: in vivo
[2] = Pharmacokinetic property (Clearance) for the compound (5 mg/kg iv) was determined in rats; type: ADME, organism-based; conditions: rat, in vivo
[3] = Pharmacokinetic property (Vdss) for the compound (5 mg/kg iv) was determined in rats; type: ADME, organism-based; conditions: rat, in vivo, read-out: Vdss
[4] = Solubility at pH 7.4 was determined; type: physicochemical; conditions: buffer
[5] = Partition coefficient (logP); type: physicochemical; conditions: octanol/water
[6] = Solubility at pH 5.2 was determined; type: physicochemical; conditions: buffer
[7] = Pharmacokinetic property (t1/2) for the compound ([…] mg/kg iv) was determined in rats; type: ADME, organism-based; conditions: rat, in vivo, 5 mg/kg
[8] = Solubility was determined; type: physicochemical

bioavailability [1] [%]	clearance [2] [mL/min/kg]	Vd [3] [L/kg]	solubility [4] [µg/mL]	logP [5]	solubility [6] [µg/mL]	half-life [7] [h]	solubility [8] [µg/mL]	SMILES
35	65	7.2	5 (≈ 12.8 µM)	3.3	24 (≈ 61.6 µM)	1.9		c1ccc2c(c1)c(-c1cncc(-c3ccsc3)c1)cn2CCN1CCOCC1
				> 4.1			< 5	CC(=O)Nc1oc(-c2cc3ccccc3cc2O)nc1-c1ccccc1
28	15	1.8	< 5		177 (≈ 441 µM)	1.6		c1ccc2c(c1)c(-c1cncc(-c3ccsc3)c1)cn2CCCN1CCCCC1
33	13	1.7	> 205	3.7	18200 (≈ 43600 µM)	1.8		CN1CCN(CCCn2cc(-c3cncc(-c4ccsc4)c3)c3ccccc32)CC1
